# Results from a melting point compilation (Tetko et al.).
# Residues, ends and D or L forms follow the SMILES beside them. *: point of attachment. Trt = c1ccc(C(c2ccccc2)(c2ccccc2)*)cc1; Boc = CC(C)(C)OC(=O)*; NHNH2 = NN*
row,Structure (SMILES),melting point [°C]
1,CC(=O)Nc1cc(N2CCN(Cc3ccccc3)CC2)ccc1OCC(=O)N[C@@H](CC(N)=O)C(=O)N[C@@H](Cc1ccccc1)[C@H](O)C(=O)N1CCC[C@H]1C(=O)NC(C)(C)C,119 to 127
2,CC(C)CCCC(C)C1CCC2C3CC=C4CC(N(CCCNC(=O)CCNC(=O)CCCCCNc5ccc([N+](=O)[O-])cc5[N+](=O)[O-])S(=O)(=O)c5ccccc5[N+](=O)[O-])CCC4(C)C3CCC12C (centres undefined),86 to 87
3,CCCCCCCC/C=C\CCCCCCCCNC(=O)OCCCCCCCCCCCCNC(=O)OC1CCN(C(=O)Oc2ccc(Oc3ccccc3)cc2)CC1,83 to 84
4,CSC1=NCc2cc(Cl)ccc2-n2c(C)nnc21,248 to 250
5,COc1cc(OC)c(/C=C/C(c2ccc(OC)c(NC(=O)c3ccc([N+](=O)[O-])cc3)c2)S(=O)(=O)C(/C=C/c2c(OC)cc(OC)cc2OC)c2ccc(OC)c(NC(=O)c3ccc([N+](=O)[O-])cc3)c2)c(OC)c1 (centres undefined),206 to 208
6,IC(I)=C(I)CCOCCC(I)=C(I)I,43.5 to 44.5
7,CCCCCCCCCCCCCCCCCCOC(=O)C1(C(=O)OCCCCCCCCCCCCCCCCCC)COC2(CC(C)(C)NC(C)(C)C2)OC1,54 to 56
8,CCCCCCCCCCCCCCCCCCOC(=O)CSCc1cc(CSCC(=O)OCCCCCCCCCCCCCCCCCC)c(O)c(CSCC(=O)OCCCCCCCCCCCCCCCCCC)c1,70 to 71
9,Cc1cc(F)c(-n2nc(C(F)(F)F)nc2NC(=O)C(F)(F)F)cc1C(S(=O)C(c1cc(-n2nc(C(F)(F)F)nc2NC(=O)C(F)(F)F)c(F)cc1C)C(F)(F)F)C(F)(F)F (centres undefined),233 to 237
10,COc1cc(OC)c(C=CC(c2ccc(OC)c(NC(=O)C(C)O)c2)S(=O)(=O)C(C=Cc2c(OC)cc(OC)cc2OC)c2ccc(OC)c(NC(=O)C(C)O)c2)c(OC)c1 (centres undefined),174 to 176
11,CCCCCCCCCCS(=O)(=O)c1c(S(=O)(=O)CCCCCCCCCC)c(S(=O)(=O)CCCCCCCCCC)c(S(=O)(=O)CCCCCCCCCC)c(S(=O)(=O)CCCCCCCCCC)c1S(=O)(=O)CCCCCCCCCC,76
12,C=C(C)C(=O)Nc1ccc2ncnc(Nc3cccc(Br)c3)c2c1,244 to 245
13,Cc1ccc(N(C)c2cccs2)cc1O,131 to 133
14,CC(C)CC(NC(=O)OC(C)(C)C)C(=O)NCC(=O)NCC(=O)NC(C)C(=O)NCC(=O)NC(CSC(c1ccccc1)(c1ccccc1)c1ccccc1)C(=O)NC(CCCCNC(=O)OC(C)(C)C)C(=O)NC(CC(N)=O)C(=O)NC(Cc1ccccc1)C(=O)NC(Cc1ccccc1)C(=O)NN (centres undefined) (Boc-LGGAGC(Trt)K(Boc)NFF-NHNH2; configuration not given here),239 to 242
15,CC(=O)N1C(C)(C)CC(OC(=O)C(Cc2cc(C)c(O)c(C(C)(C)C)c2)(Cc2cc(C)c(O)c(C(C)(C)C)c2)C(=O)OC2CC(C)(C)N(C(C)=O)C(C)(C)C2)CC1(C)C,189
16,O=C(OI(OC(=O)C(F)(F)F)C(F)(F)C(F)(F)C(F)(F)C(F)(F)C(F)(F)C(F)(F)C(F)(F)C(F)(F)C(F)(F)C(F)(F)F)C(F)(F)F,83 to 88
17,COc1cc(OC)c(/C=C/C(c2ccc(OC)c(NC(=O)CC(=O)O)c2)S(=O)(=O)C(/C=C/c2c(OC)cc(OC)cc2OC)c2ccc(OC)c(NC(=O)CC(=O)O)c2)c(OC)c1 (centres undefined),118 to 121
18,CC(=O)OCC=C(C)CCC=C(C)CCC=C(C)CCC=C(C)CCC=C(C)CCC=C(C)CCC=C(C)CCC=C(C)CCC=C(C)CCC=C(C)CCC=C(C)C,36 to 37
19,COC(=O)C(CCN1C(=O)c2ccccc2C1=O)Oc1c(Br)cc(-c2c3ccccc3c(Br)c3sc4ccccc4c23)cc1Br (centres undefined),221 to 222
20,CCCCCCCCCCCCCCCCCCOc1cc(OCCCCCc2cccc(OCc3ccccc3)c2OCc2ccccc2)cc(N(CC(=O)O)CC(=O)O)c1,79 to 81

row,Structure (SMILES),melting point [°C]
1,Cc1ccc(Cc2cc(OCCCCCCCCCCCCP(=O)(O)O)ccc2S(=O)(=O)c2ccc(OCCCCCCCCCCCCP(=O)(O)O)cc2Cc2ccc(C)cc2)cc1,148 to 150
2,O=S(=O)(C(/C=C/c1c(F)c(F)c(F)c(F)c1F)c1ccc(I)cc1)C(/C=C/c1c(F)c(F)c(F)c(F)c1F)c1ccc(I)cc1 (centres undefined),178 to 181
3,CCc1nc2c(cnn2CC)c(NC2CCOCC2)c1CNC(=O)c1cccc(C(=O)NCc2ccc(C)c(-c3cccc(CN4CCN(C(=O)OC(C)(C)C)C(C)C4)c3)c2)c1 (centres undefined),115 to 118
4,O=C1OC(=O)c2ccc3c4c(ccc1c24)C(=O)OC3=O,300
5,CCN(c1nc(OCCOC(=O)CCC(=O)OCCOc2nc(N(CC)C3CC(C)(C)NC(C)(C)C3)nc(N(CC)C3CC(C)(C)NC(C)(C)C3)n2)nc(N(CC)C2CC(C)(C)NC(C)(C)C2)n1)C1CC(C)(C)NC(C)(C)C1,85
6,Brc1ccc2c(c1)C(CCCCCCCCCCn1c3ccccc3c3ccccc31)(CCCCCCCCCCn1c3ccccc3c3ccccc31)c1cc(Br)ccc1-2,94 to 96
7,COc1ccc(C(=O)c2ccc(OCc3nc(-c4ccccc4)oc3C)cc2)c(O)c1,156 to 157
8,CC(C)(C)CC(C)(C)c1cc(-n2nc3ccc(-c4ccc(-c5ccc6nn(-c7cc(C(C)(C)CC(C)(C)C)cc(C(C)(C)c8ccccc8)c7O)nc6c5)cc4)cc3n2)c(O)c(C(C)(C)c2ccccc2)c1,247 to 249
9,CCc1nc(C)c(C(=O)OCOC(=O)C(C)(C)C)n1Cc1ccc2oc(-c3ccccc3-c3nnn(C(c4ccccc4)(c4ccccc4)c4ccccc4)n3)c(Br)c2c1,51 to 53
10,COc1cc(OC)c(C=CC(c2ccc(OC)c(NC(=O)CCl)c2)S(=O)(=O)C(C=Cc2c(OC)cc(OC)cc2OC)c2ccc(OC)c(NC(=O)CCl)c2)c(OC)c1 (centres undefined),163 to 165
11,CCCCN(c1nc(NC(C)(C)CC(C)(C)C)nc(N(CCCC)C2CC(C)(C)N(OC3CCCCC3)C(C)(C)C2)n1)C1CC(C)(C)N(OC2CCCCC2)C(C)(C)C1,85 to 103
12,CC(C)(C)c1cc(Cc2cc(C(C)(C)C)cc(C(C)(C)C)c2Op2oc3c(C(C)(C)C)cc(C(C)(C)C)cc3c3cc(C(C)(C)C)cc(C(C)(C)C)c3o2)c(O)c(C(C)(C)C)c1,195 to 205
13,CC(C)[C@H](NC(=O)N(C)Cc1csc(N)n1)C(=O)N[C@@H](Cc1ccccc1)[C@H](O)[C@@H](O)[C@H](Cc1ccccc1)NC(=O)[C@@H](NC(=O)N(C)Cc1csc(N)n1)C(C)C,122 to 124
14,O=C(NCC(O)CO)c1c(I)c(C(=O)NCC(O)CO)c(I)c(N2C(=O)COCC2CO)c1I (centres undefined),227 to 230
15,CCCCCCCCCCCCc1cc(-c2c(Cl)c(Cl)c(-c3cc(CCCCCCCCCCCC)c(Br)s3)c3nsnc23)sc1Br,60 to 61
16,CCCCCCCCNC1(NC(=O)c2ccccc2-c2ccc(CCCCCCCC)cc2)CC(CCCC)=C(NC(=O)c2ccccc2-c2ccc(CCCCCCCC)cc2)C2=C1C(=O)c1ccccc1C2=O (centres undefined),94 to 95
17,COc1cc(OC)c(/C=C/C(c2ccc(OC)c(OC)c2OC)S(=O)(=O)C(/C=C/c2c(OC)cc(OC)cc2OC)c2ccc(OC)c(OC)c2OC)c(OC)c1 (centres undefined),94 to 96
18,CCc1nc(OC)c(NC(=O)N2CCN(c3cc(Cl)cc(Cl)c3)CC2)cc1C(=O)NC(C)C(=O)Nc1cc(CO)cc(Nc2c3ccccc3nc3ccccc23)c1 (centres undefined),184 to 186
19,O=C(c1ccc(I)cc1)c1cc2c3c(c1)C(c1cccc(Cl)c1)CC(=O)N3CC2 (centres undefined),275
20,Cc1ccc2cccc(OCc3c(Cl)ccc(S(=O)(=O)N4CCC[C@H]4C(=O)NC4CCN(C(=O)CCN(C=NC(=O)OC(C)(C)C)NC(=O)OC(C)(C)C)CC4)c3Cl)c2n1,112

row,Structure (SMILES),melting point [°C]
1,Nc1ncnc2c1c(I)cn2COC(O)CCO (centres undefined),177 to 178
2,Nc1cccc(CN2C(=O)C3(COc4cc5c(cc43)OCCO5)c3ccccc32)n1 (centres undefined),240 to 241
3,CCCCCCCCCCCCc1cc2c(cc1CCCCCCCCCCCC)C(=O)c1c(c(O)c3cc(CCCCCCCCCCCC)c(CCCCCCCCCCCC)cc3c1O)C2=O,66 to 76
4,CS(C)(=O)=NC(=O)c1cccc(Oc2ccc(C(F)(F)F)cc2Cl)c1,110 to 113
5,COC(=O)c1ccc([C@H](C)NC(=O)CN2CCN(CC(=O)N[C@@H](C)c3ccccc3)CCN(Cc3ccn(-c4ccc5c(=O)c6cc(C(C)(C)C)ccc6oc5n4)n3)CCN(CC(=O)N[C@@H](C)c3ccccc3)CC2)cc1,187 to 189
6,CC(C)C(OC(C(I)=C(I)I)C(C)C)C(I)=C(I)I (centres undefined),43.5 to 44
7,C1CCC2NCCC2C1 (centres undefined),85
8,CC(C#N)N1CCC(c2noc3cc(F)ccc23)CC1 (centres undefined),133 to 134
9,CC(C)[C@H](NC(=O)OCc1ccccn1)C(=O)N[C@@H](Cc1ccccc1)[C@H](O)[C@@H](O)[C@H](Cc1ccccc1)NC(=O)[C@@H](NC(=O)N(C)Cc1csc(N)n1)C(C)C,188 to 192
10,CSc1ccccc1C(=O)Nc1ccc(C(=O)N2Cc3cccn3Cc3ccccc32)cc1,171 to 174
11,CC[C@H](C)CNC(=O)[C@@H](C[C@H](O)[C@H](CC1CCCCC1)NC(=O)[C@H](Cc1cscn1)NC(=O)[C@H](Cc1cccc2ccccc12)NC(=O)CN1CCOCC1)C(C)(C)O,141 to 143
12,O=CCCCCCCOc1ccc(OCc2ccccc2)cc1,65 to 67
13,CC(C)[C@H](NC(=O)N1CCN(c2ccccc2)CC1)C(=O)N[C@@H](Cc1ccccc1)[C@@H](O)[C@H](O)[C@H](Cc1ccccc1)NC(=O)[C@@H](NC(=O)N1CCN(c2ccccc2)CC1)C(C)C,165 to 166
14,CC(=O)c1ccc(-n2c(-c3sc(Nc4ccc(Cl)cc4)nc3C)nc3ccccc3c2=O)cc1,209 to 210
15,CCCCN(Cc1c(C)cc(C(C)(C)C)c(O)c1C)S(=O)(=O)c1ccc(-c2ccc(S(=O)(=O)N(CCCC)Cc3c(C)cc(C(C)(C)C)c(O)c3C)cc2)cc1,225 to 227
16,CCCCCCCCCCCCCCCC(=O)OCC(COC(=O)CCCCCCCCCCCCCCC)OC(=O)CCCC(=O)Oc1cc(Cl)ccc1Oc1ccc(Cl)cc1Cl,44 to 46
17,CCCCCCCC/C=C\CCCCCCCCN,15 to 22
18,CC(NC(=O)C(CC(C(=O)O)C(C)(C)C)NC(=O)C(CC(C(=O)O)C(C)(C)C)NC(=O)C(NC(=O)C(N)C(C)C)C(C)C)C(=O)NC(CC(C(=O)O)C(C)(C)C)C(=O)NC(CC(N)=O)C(=O)OC(C)(C)C (centres undefined),229 to 231
19,COc1cc(OC)c(/C=C/C(c2ccc(OC)c(NC(C)=O)c2)S(=O)(=O)C(/C=C/c2c(OC)cc(OC)cc2OC)c2ccc(OC)c(NC(C)=O)c2)c(OC)c1 (centres undefined),220 to 223
